Experimental data from patent US11129867B2, “Method of treating cancer cells” (priority 2017, dated 2021).
Where two headings read alike, the source gives them in different places. Where no end group is shown, it is not given here.

Columns and labels:
[1] = tested on: Ca922 cells; experiment: WST-8 cell viability assay, Ca922; type: cell-based, human
Method: (§1) Human oral squamous cell carcinoma (OSCC) cell lines, Ca922, OSC20, OECM-1, OC3, CGHNC9, HSC3, plus A549, MDA-MB-231, MCF7, Huh7, HeLa-Kyoto, Detroit 562, H520, H2170, and 293T cells were used in this study. Ca922, CGHNC9, MDA-MB-231, MCF7, Huh7, HeLa-Kyoto, Detroit 562, and 293T cells were all cultured in high-glucose Dulbecco's Modified Eagle Medium (DMEM). OSC20 and HSC3 cells were cultured in Dulbecco's Modified of Eagle's Medium/Ham's F-12 50/50 Mix (1:1). OECM-1, A549, H520, and H2170 cells were grown in RPMI-1640 medium. All culture media were supplemented with 10% fetal bovine serum (FBS) and 1% penicillin-streptomycin. OC3 cells were cultured in 1:1 DMEM/KSFM (keratinocyte serum-free medium) with supplied supplement of Bovine pituitary extract (BPE) and epidermal growth factor (EGF) followed by instruction. All the cells in this study were maintained at 37° C. in humidified atmosphere containing 5% CO2.
(§2) WST-8 [2-(2-methoxy-4-nitrophenyl)-3-(4-nitrophenyl)-5-(2,4-disulfophenyl)-2H-tetrazolium, monosodium salt] cell viability assay
(§3) Cells were seeded into 96 well plate and incubated at 37° C. overnight. Endpoint measures of TMR-GBP or drugs were performed by water soluble tetrazolium salt (WST-8)-based colorimetric assay in triplicate which measures the metabolic conversion of WST-8 into formazan by mitochondrial dehydrogenases present in viable cells. The amount of formazan produced is proportional to the number of live cells and is expressed as cellular viability. When time was up, media were removed and supplemented with WST-8 cell viability reagent-contained cell culture medium (1:10) and incubated at 37° C. for 2 hours. Besides, three wells with WST-8-dissolved medium only (without cells) were reserved as a background control. Cell viability was measured at the absorbance of 450/655 nm wavelength by ELISA reader.

[2] = tested on: Ca922 cells; experiment: Annexin V staining with flow cytometry; type: cell-based, human; conditions: Ca922, 1% H2O2 positive control, FIG. 6A
Method: […] Diluted 10× Binding Buffer to 1× using distilled water. Washed cells once in PBS, then once in 1× Binding Buffer. Resuspended cells in 1× Binding Buffer at 1-5×10^6/mL. Next, added 5 μL of fluorochrome-conjugated Annexin V to 100 μL of the cell suspension. Sample was incubated 10-15 minutes at room temperature. Afterwards, washed cells in 1× Binding Buffer and resuspend in 200 μL of 1× Binding Buffer. Analyzed by flow cytometry within 4 hours, storing at 2-8° C. in the dark.

[3] = tested on: phospho-γH2Ax; experiment: Immunofluorescence staining of phospho-γH2Ax (DNA damage); type: cell-based, human; conditions: Ca922, H2O2 positive control, FIG. 10A
Method: Representative images showing DAPI-labelled nucleus (shown in blue) co-stained with phospho-γH2Ax (green). Ca922 cells were treated with 25 μM TMR-GBP for 12 or 24 hours followed by immunofluorescence staining. Foci in the nucleus indicated damaged DNA. Scale bar indicates 10 μm.
At least 20 cells were counted in each category. Bars indicate standard deviations from three independent experiments.
Immunofluorescence Staining
Cells grown on coverslips were washed with 1×PBS and fixed by PTEMF buffer (20 mM PIPES pH 6.8, 0.2% Triton X-100, 10 mM EGTA, 1 mM MgCl2, and 4% formaldehyde) or 4% paraformaldehyde for 10 minutes at room temperature. Then, fixation buffer was replaced with 1×PBST and the cells were washed with 1×PBST for another 10 minutes at room temperature. Coverslips were washed with 1×PBST twice gently and incubated with primary antibodies at room temperature for 1 hour. Next, washed with PBST for three times (2, 2, 5 minutes). Afterwards, coverslips were cultured in Alex Fluor-conjugated secondary antibodies and DAPI at room temperature for 30 minutes, washed three times (2, 2, 5 minutes), rinsed with ddH2O and mounted with mounting medium. Antibodies concentration used in this analysis is 1:1000 dilution. Images were acquired with specific fluorescence wavelength by Leica DMI6000 inverted microscope equipped with HCX PL FL 100λ/NA1.40 objective and EMCCD camera. All images were analyzed by MetaMorph software.

[4] = tested on: Detroit 562; experiment: WST-8 cell viability assay, Detroit 562; type: cell-based
Method: as §1, §2, §3

[5] = tested on: H2170; experiment: WST-8 cell viability assay, H2170; type: cell-based
Method: as §1, §2, §3

[6] = tested on: Ca922 cells; experiment: Time-lapse live cell imaging, Ca922; type: cell-based; conditions: Ca922, 12.5 μM, exposed to 532 nm, 488 nm, 405 nm and brightfield, after 20 hours, FIG. 2
Method: Ca922 cells were grown on 35 mm culture dishes overnight then treated with 1% DMSO, 12.5 μM TMR, GBP, TMR-GBP respectively and monitored by time-lapse live cell microscope. Cells were exposed to indicate wavelength once every 4 hours for 100 ms and continuously for 20 hours. At least 300 cells in five different fields were counted for each experiment using microcopy that captured images under 10× magnification. Mortality rate was evaluated by counting the percentage of dead cells in the whole population. Standard deviations of three independent experiments were indicated as bars.
Time-Lapse Live Cell Imaging
In order to monitor cell morphology and the stability of TMR-GBP, cells were incubated in 35 mm dish or 4 well dish at 37° C. overnight. Replaced the culture medium with CO2-independent medium with supplement of 10% fetal bovine serum (FBS) and 1% penicillin-streptomycin, cells were treated with reagent (TMR, GBP, TMR-GBP) for the time according to the experiment and subjected to time-lapse live cell imaging. Cells were maintained on the microscope stage incubator at 37° C. Multiple-positional time-lapse imaging was performed using an automated Leica DMI6000 inverted microscope equipped with an HCX PL FL 20λ/NA0.4 objective and Andor Luca R EMCCD camera. Images of cells were taken at different interval time and analyzed by MetaMorph software.

[7] = tested on: H520; experiment: WST-8 cell viability assay, H520; type: cell-based
Method: as §1, §2, §3

In the case of O=C(O)CN(CCOCCOCCN(CC(=O)O)CC(=O)O)CC(=O)O [EGTA, ethylene glycol tetraacetic acid, reference compound], the “effect on cell viability” value ([1]; Ca922, 1 mM EGTA, 50 hours, FIG. 8A) is reported as “no significant effect on cell viability”.
For OO [H2O2, reference compound], the “apoptosis by Annexin-V-FITC labeling” value [2] was “induces apoptosis in Ca922” and the “phospho-γH2Ax foci in the nucleus (DNA damage)” value [3] was “many foci were observed accumulating in the nucleus”.
CN(C)c1ccc2c(-c3ccccc3C(=O)[O-])c3ccc(N(C)C)cc3[o+]c2c1 [TMR, Tetramethylrhodamine, reference compound] was tested, and the “cytotoxicity (cell viability)” value ([4]; Detroit 562 (pharynx cancer), different concentrations, 48 hours, FIG. 5) was “neither TMR-GBPR3QW4R nor TMR alone induce cytotoxicity”, the “cytotoxicity (cell viability)” value ([1]; Ca922 (oral cancer), different concentrations, 48 hours, FIG. 5) was “neither TMR-GBPR3QW4R nor TMR alone induce cytotoxicity” and the “cytotoxicity (cell viability)” value ([5]; H2170 (lung cancer), different concentrations, 48 hours, FIG. 5) was “neither TMR-GBPR3QW4R nor TMR alone induce cytotoxicity”. The “cytotoxicity under light stress (mortality)” value [6] was “more sensitive to 532 nm light stress and displayed cytotoxic effects” and the “cytotoxicity (cell viability)” value ([7]; H520 (lung cancer), different concentrations, 48 hours, FIG. 5) was “neither TMR-GBPR3QW4R nor TMR alone induce cytotoxicity”.
In the case of “TMR-GBPR3QW4R: TMR conjugate of peptide GBPR3QW4R, NYQRRCKNQN (SEQ ID NO. 4) (not fully specified (N-terminus); also: TMR conjugate, site not given here; listed as Homo sapiens)”, the “cytotoxicity (cell viability)” value [4] is reported as “neither TMR-GBPR3QW4R nor TMR alone induce cytotoxicity”, the “cytotoxicity (cell viability)” value [1] is reported as “neither TMR-GBPR3QW4R nor TMR alone induce cytotoxicity” and the “cytotoxicity (cell viability)” value [5] is reported as “neither TMR-GBPR3QW4R nor TMR alone induce cytotoxicity”. For the same compound, the “cytotoxicity (cell viability)” value [7] was “neither TMR-GBPR3QW4R nor TMR alone induce cytotoxicity”.
In the case of “TMR-GBPW4R: TMR conjugate of peptide GBPW4R, NYRRRCKNQN (SEQ ID NO. 3) (not fully specified (N-terminus); also: TMR conjugate, site not given here; listed as Homo sapiens)”, the “cytotoxicity (cell viability)” value [4] is reported as “could induce cytotoxicity”, the “cytotoxicity (cell viability)” value [5] is reported as “could induce cytotoxicity” and the “cytotoxicity (cell viability)” value [7] is reported as “could induce cytotoxicity”.
